In patent US20100226853A1 (priority 2007, published 2010):
Read-outs that look alike come from different tables or passages of the source.

Key:
[1] = target: T1, SRC (Homo sapiens, UniProt P12931); type: biochemical; details: read-out: IC50, Src protein
Protocol: (§1) Kinase was preincubated with inhibitor at 37° C. for 10 min prior to starting the reaction upon addition of ATP; Assay was carried out in 384 well clear plates (Corning) and absorbance was measured on SpectraMax plate reader (Molecular Devices). Reaction rates were plotted against inhibitor concentration and fitted using SigmaPlot 9.0 (Systat Software Inc.).

[2] = target: T2, ABL (Homo sapiens, UniProt P00519); type: biochemical; parameters: purchased Invitrogen; details: mean of three experiments; read-out: IC50, Abl protein
Protocol: as §1

[3] = test system: K562 cells; experiment: Cellular proliferation, [3H]thymidine uptake; type: cell-based; details: Homo sapiens, K562, read-out: IC50, K562 cells proliferation
Protocol: (§2) The immortalized human hematopoietic Philadelphia chromosome-positive cytokine independent R10(−) M07e^p210 cell line (46) was maintained in Iscove's modified Dulbecco's medium (Life Technologies, Inc., Grand Island, N.Y.) containing 10% FCS (Hyclone, Logan, Utah). The parental M07e megakaryoblastic cell line was a kind gift of Brian Druker and was maintained in the presence of 50 ng/mL kit ligand (SCF) as described (46-47) K562 was obtained from the ATCC. […] Tumor cell cultures were maintained in a humidified atmosphere with 5% CO2 at 37° C. (NuAire).
(§3) Data points for all assays were obtained in triplicate, and background incorporation from cell-free wells was determined and subtracted from all data points. The data was analyzed using a non-linear regression fit to a sigmoidal dose-response curve using Prism 4 (GraphPad Software, Inc).

[4] = test system: R10 neg cells (MO7e/p210^bcr-abl); experiment: Cellular proliferation, [3H]thymidine uptake; type: cell-based; details: Homo sapiens, read-out: IC50, R10 neg cells (MO7e/p210^bcr-abl) proliferation
Protocol: as §2, §3

[5] = target: T3, 1% bovine serum albumin (Bos taurus, UniProt P02769); experiment: Protein binding assay, BSA; type: in vitro ADME
T3 construct: from tissue; host or cells: bovine serum (from the protein's name)
Protocol: (§4) Protein binding of the radiotracers were determined adding 37 kBq (1 μCi) of each radioligand to samples of 1% bovine serum albumin and 1 mL of fresh human serum. The protein was precipitated by adding 1 mL of ice cold 20% trichloroacetic acid and the suspension centrifuged and washing with 1 mL of 20% ice cold trichloroacetic acid. The protein pellets and supernatants were counted in a gamma counter to determine the protein binding of the radioligands.

[6] = Octanol/water partition coefficient determination; type: physicochemical; details: n-octanol/water
[7] = target: T4, CSK (Homo sapiens, UniProt P41240); experiment: QuickScout ELISA kinase panel; type: biochemical; details: Compound 5 at 10 nM
T4 construct: purchased Carna Biosciences (QuickScout service)
Source text: (§5) . […] An ELISA-based assay was used in which the phosphorylation of an oligopeptide substrate was detected by an HRP-conjugated anti-p-Tyr (PY20) probe. […]. The data appears in Table 2 in Example 3.

[8] = target: T5, MET (Homo sapiens, UniProt P08581); experiment: QuickScout ELISA kinase panel; type: biochemical; details: Compound 5 at 10 nM
T5 construct: purchased Carna Biosciences (QuickScout service)
Source text: as §5

[9] = target: T6, TEC (Homo sapiens, UniProt P42680); experiment: QuickScout ELISA kinase panel; type: biochemical; details: Compound 5 at 10 nM
T6 construct: purchased Carna Biosciences (Kobe, Japan), QuickScout service
T6 sequence (P42680 1-631): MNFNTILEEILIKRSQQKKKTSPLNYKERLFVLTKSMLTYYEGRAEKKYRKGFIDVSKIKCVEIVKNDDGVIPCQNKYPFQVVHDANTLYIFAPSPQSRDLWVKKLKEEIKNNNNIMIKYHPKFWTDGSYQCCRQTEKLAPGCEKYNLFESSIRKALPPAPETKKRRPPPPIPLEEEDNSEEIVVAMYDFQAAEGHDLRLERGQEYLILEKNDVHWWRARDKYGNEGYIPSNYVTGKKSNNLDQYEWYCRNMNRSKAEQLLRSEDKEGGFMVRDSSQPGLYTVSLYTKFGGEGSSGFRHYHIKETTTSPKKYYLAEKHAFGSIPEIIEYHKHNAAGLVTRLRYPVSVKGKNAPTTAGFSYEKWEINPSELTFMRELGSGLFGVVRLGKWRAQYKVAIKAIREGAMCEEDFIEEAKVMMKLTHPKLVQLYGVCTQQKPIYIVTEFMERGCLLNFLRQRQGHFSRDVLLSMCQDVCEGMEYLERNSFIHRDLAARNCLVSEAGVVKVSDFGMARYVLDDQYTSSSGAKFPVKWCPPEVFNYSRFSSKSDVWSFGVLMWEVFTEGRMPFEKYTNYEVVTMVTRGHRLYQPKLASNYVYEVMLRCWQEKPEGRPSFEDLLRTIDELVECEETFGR
Source text: as §5

[10] = target: T7, PDGFR— (Homo sapiens, UniProt P16234); experiment: QuickScout ELISA kinase panel; type: biochemical; details: Compound 5 at 10 nM
T7 construct: purchased Carna Biosciences (Kobe, Japan), QuickScout service
Source text: as §5

[11] = target: T2, ABL; experiment: QuickScout ELISA kinase panel; type: biochemical; parameters: purchased Carna Biosciences (QuickScout service)
Source text: (§6) An ELISA-based assay was used in which the phosphorylation of an oligopeptide substrate was detected by an HRP-conjugated anti-p-Tyr (PY20) probe.

[12] = Protein binding assay, serum; type: in vitro ADME; details: fresh human serum
Protocol: as §4

[13] = test system: M07e cells; experiment: Cellular proliferation, [3H]thymidine uptake, Kit ligand dependent growth; type: cell-based; details: Homo sapiens, M-07e, read-out: IC50, M07e cells proliferation
Protocol: The immortalized human hematopoietic Philadelphia chromosome-positive cytokine independent R10(−) M07e^p210 cell line (46) was maintained in Iscove's modified Dulbecco's medium (Life Technologies, Inc., Grand Island, N.Y.) containing 10% FCS (Hyclone, Logan, Utah). The parental M07e megakaryoblastic cell line was a kind gift of Brian Druker and was maintained in the presence of 50 ng/mL kit ligand (SCF) as described (46-47) K562 was obtained from the ATCC. K562 was maintained in suspension in 90% RPMI 1640 medium supplemented with 10% FBS, 2 mM L-glutamine, 10 mM HEPES, 1 mM sodium pyruvate, 1.5 g/L sodium bicarbonate, 4.5 g/L […], 10% FBS, 100 IU/mL penicillin and 100 μg/ml streptomycin. Tumor cell cultures were maintained in a humidified atmosphere with 5% CO2 at 37° C. (NuAire).
. Data points for all assays were obtained in triplicate, and background incorporation from cell-free wells was determined and subtracted from all data points. The data was analyzed using a non-linear regression fit to a sigmoidal dose-response curve using Prism 4 (GraphPad Software, Inc).

[14] = target: T1, SRC; experiment: biochemical
Source text: as §6

T1 sequence (P12931 whole entry): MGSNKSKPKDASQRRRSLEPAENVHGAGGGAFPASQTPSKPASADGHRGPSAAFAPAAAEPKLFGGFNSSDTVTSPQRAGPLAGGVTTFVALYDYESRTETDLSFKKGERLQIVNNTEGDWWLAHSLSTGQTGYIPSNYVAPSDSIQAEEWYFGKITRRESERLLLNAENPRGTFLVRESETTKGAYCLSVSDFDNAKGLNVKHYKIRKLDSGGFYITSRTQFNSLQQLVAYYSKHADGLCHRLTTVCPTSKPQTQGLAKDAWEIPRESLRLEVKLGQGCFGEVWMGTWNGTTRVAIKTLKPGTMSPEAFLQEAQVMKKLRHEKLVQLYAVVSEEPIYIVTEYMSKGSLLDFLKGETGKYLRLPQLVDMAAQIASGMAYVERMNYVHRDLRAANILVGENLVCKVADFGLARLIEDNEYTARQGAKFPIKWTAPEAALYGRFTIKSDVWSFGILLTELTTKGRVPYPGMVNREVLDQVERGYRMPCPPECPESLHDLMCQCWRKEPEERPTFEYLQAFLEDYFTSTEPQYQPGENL
T2 sequence (P00519 whole entry): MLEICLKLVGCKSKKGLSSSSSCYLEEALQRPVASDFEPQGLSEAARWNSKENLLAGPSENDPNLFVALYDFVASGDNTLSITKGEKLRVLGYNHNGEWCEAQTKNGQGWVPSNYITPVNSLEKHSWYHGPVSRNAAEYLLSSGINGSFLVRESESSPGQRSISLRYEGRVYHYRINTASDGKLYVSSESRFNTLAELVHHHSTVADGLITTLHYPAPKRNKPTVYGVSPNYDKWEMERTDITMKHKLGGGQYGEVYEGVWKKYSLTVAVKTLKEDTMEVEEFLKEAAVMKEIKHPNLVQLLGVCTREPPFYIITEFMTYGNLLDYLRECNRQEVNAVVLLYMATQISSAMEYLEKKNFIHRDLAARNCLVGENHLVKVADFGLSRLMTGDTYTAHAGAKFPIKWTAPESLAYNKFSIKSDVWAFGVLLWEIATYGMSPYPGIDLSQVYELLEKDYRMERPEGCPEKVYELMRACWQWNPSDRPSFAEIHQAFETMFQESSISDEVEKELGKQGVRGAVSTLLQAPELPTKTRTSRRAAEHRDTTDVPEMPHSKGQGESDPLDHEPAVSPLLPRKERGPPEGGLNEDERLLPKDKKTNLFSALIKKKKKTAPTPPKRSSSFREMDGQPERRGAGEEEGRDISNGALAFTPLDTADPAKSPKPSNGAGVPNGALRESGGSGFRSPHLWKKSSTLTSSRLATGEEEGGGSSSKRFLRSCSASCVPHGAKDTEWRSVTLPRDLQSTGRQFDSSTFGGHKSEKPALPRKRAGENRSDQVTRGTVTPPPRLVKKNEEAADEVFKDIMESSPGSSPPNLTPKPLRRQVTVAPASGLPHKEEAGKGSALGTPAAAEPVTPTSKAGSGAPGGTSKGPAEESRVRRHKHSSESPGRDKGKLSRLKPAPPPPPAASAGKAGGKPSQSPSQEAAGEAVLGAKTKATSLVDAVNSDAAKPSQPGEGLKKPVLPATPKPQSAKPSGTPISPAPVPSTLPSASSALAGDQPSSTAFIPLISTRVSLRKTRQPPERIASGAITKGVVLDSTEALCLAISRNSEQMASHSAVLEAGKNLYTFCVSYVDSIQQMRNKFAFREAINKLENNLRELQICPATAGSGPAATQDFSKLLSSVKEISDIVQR
T3 sequence (P02769 25-607): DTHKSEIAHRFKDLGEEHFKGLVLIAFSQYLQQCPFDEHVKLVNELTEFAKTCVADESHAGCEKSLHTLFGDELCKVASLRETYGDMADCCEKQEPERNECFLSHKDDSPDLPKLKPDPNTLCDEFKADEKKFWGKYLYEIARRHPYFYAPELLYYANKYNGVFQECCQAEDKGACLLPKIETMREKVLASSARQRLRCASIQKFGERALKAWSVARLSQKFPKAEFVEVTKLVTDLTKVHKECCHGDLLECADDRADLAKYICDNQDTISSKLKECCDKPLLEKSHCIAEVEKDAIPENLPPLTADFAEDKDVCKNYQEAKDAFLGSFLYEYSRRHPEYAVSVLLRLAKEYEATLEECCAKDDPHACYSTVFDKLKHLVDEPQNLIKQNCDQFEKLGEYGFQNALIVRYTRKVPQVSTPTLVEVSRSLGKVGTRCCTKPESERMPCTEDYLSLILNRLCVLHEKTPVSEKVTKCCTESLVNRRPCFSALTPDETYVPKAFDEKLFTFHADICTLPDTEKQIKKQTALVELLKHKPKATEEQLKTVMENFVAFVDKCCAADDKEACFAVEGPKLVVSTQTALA
T4 sequence (P41240 whole entry): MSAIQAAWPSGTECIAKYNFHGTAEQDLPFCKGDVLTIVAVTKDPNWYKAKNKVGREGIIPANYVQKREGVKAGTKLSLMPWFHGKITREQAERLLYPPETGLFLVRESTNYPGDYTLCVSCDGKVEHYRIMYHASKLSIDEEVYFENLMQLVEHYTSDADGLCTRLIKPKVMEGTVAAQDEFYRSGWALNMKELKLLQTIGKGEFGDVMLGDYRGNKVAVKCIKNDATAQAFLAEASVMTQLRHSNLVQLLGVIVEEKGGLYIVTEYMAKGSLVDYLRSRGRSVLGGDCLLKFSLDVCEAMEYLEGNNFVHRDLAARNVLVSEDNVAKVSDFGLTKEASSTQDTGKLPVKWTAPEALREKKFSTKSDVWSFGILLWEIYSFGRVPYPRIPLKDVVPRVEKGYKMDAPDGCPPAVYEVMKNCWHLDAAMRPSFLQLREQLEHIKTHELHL
T5 sequence (P08581 25-1390): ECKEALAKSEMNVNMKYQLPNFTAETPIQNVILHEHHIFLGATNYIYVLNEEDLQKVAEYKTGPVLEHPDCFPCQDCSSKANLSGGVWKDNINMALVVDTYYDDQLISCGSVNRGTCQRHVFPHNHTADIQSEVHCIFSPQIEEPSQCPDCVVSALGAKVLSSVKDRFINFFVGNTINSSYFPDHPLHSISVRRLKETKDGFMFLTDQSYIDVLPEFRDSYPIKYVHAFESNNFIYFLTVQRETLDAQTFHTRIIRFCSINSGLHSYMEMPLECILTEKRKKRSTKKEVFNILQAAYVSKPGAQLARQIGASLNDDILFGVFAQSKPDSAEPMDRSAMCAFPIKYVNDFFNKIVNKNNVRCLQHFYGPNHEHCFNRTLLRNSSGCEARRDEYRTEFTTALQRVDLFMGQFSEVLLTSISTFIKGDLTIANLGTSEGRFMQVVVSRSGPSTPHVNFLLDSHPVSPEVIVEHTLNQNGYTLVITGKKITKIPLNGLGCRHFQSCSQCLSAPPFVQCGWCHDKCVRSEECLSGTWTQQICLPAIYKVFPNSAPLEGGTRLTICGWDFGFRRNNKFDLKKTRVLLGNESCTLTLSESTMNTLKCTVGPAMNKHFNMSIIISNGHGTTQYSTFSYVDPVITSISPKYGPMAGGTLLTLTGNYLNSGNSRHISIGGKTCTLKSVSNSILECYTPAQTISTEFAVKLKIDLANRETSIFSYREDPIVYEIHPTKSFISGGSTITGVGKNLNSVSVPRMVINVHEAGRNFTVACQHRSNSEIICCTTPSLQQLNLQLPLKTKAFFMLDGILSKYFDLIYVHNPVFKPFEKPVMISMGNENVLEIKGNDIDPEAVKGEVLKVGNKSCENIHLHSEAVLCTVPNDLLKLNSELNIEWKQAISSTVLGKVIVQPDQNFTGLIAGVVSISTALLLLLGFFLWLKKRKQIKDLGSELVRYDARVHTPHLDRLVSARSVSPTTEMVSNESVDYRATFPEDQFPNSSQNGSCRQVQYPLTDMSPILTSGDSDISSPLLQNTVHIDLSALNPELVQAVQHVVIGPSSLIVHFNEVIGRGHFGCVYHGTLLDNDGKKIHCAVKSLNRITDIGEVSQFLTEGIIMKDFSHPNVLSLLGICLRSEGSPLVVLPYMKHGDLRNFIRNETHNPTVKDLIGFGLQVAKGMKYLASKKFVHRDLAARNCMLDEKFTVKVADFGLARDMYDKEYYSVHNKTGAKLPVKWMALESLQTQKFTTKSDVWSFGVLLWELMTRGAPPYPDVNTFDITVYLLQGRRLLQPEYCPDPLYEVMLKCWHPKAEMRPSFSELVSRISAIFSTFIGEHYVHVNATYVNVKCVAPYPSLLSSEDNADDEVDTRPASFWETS
T7 sequence (P16234 550-1089 limits assumed): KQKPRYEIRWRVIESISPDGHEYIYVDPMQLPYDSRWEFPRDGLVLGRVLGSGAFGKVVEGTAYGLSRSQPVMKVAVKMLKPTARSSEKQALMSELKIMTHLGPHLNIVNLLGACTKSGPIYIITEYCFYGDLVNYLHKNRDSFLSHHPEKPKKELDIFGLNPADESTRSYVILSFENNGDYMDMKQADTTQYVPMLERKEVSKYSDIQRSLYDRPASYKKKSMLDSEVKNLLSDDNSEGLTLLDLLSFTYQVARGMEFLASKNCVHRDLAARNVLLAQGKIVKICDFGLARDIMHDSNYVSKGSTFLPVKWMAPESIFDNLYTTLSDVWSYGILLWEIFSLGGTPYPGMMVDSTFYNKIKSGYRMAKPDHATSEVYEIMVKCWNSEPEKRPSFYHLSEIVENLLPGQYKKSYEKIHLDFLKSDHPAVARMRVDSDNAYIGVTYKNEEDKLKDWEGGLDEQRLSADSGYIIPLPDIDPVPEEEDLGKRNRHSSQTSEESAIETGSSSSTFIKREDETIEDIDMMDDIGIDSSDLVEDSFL

For Cc1nc(Nc2ncc(C(=O)Nc3c(C)cccc3Cl)s2)cc(N2CCN(CCF)CC2)n1 [Compound 5, N-(2-Chloro-6-methylphenyl)-2-(6-(4-(2-fluoroethyl)piperazin-1-yl)-2-methylpyrimidin-4-ylamino)thiazole-5-carboxamide], the IC50 [1] was 3.5 ± 2.2 nM, the IC50 [2] was 9.1 ± 0.8 nM and the IC50 [3] was 1.1 nM. For the same molecule, the IC50 [4] was 0.1 nM, the “protein bound in 1% BSA” value [5] was 99.0±0.3% and the logD at 2 h [6] was 2.1 ± 0.6. It also gave an inhibition at 0.01 µM [7] of 95.2%, an inhibition at 0.01 µM [8] of 7.2% and an inhibition at 0.01 µM [9] of 98.1%. The inhibition at 0.01 µM [10] was 86%, the IC50 [11] was < 2 nM and the inhibition at 0.01 µM ([11]; Compound 5 at 10 nM) was > 97%. For the same molecule, the “% Inhibition of Kinase Activity, ABL” value ([11]; Compound 5 at 10 nM, 0.01 µM) was 99.4%, the “protein bound in serum” value [12] was 98.5±1.0% and the IC50 [13] was 1.1 nM. For the same molecule, the IC50 [14] was < 2 nM, the “% Inhibition of Kinase Activity, SRC” value ([14]; Compound 5 at 10 nM, 0.01 µM) was 97.5% and the inhibition at 0.01 µM ([14]; read-out: % Inhibition of Kinase Activity, SRC, Compound 5 at 10 nM) was > 97%.
